Values joined by “and” are separate entries in the source; they are usually repeats but may differ in a detail not shown here. Equal values may be shown once. Read-outs that look alike come from different tables or passages of the source.
Tested on: 60 cancer cell lines (NCI 60 cancer cell line series)
Assay: NCI-DTP in vitro cancer screen, sulforhodamine B (SRB) growth inhibition, 48 hour exposure
Format: cell-based, human
Procedure: Cancer Cell Line Preparation. Sixty cancer cell lines were obtained from the National Cancer Institute Developmental Therapeutics Program (NCI-DTP). Procedures for growing cells and testing compounds have been described previously (Scudiero et al., Cancer Res. 1988, 48:4827-4833; Stinson et al., Anticancer Res.; Myers et al., Electrophoresis 1997, 18:647-653). Cells are plated on day 0 at a density individualized for each cell line so that they will generally be sub-confluent at the end of the assay period. On day 1, a compound is added in the format for a duplicate-well, 5-dose, ten-fold interval dose response study.
No-drug, no-cell and no-growth controls are included. On day 3 the cells are processed for staining with sulforhodamine B (SRB), which reflects the amount of cell mass present at the end of a 48 hour exposure to the test agent. From dose response curves based on the SRB data, various parameters can be determined. […] More precisely, the quantity used in the calculation to be described is the potency measure −log{GI50}.
Activity database (A). […] This subset of compounds was selected from the larger 23,000 compound database available from the DTP. The compounds were selected on the basis of their known mechanism of action and chemical structure. The average potency −log{GI50} was extracted from the comma-delimited text files available through the Web at http://www.nci.nih.gov/intra/lmp/jnwbio.html. Subsequently, these −log{GI50} values were inspected manually and classified as indicating either Low, Medium or High sensitivity to each compound.

Q: `Sc1ncnc2nc[nH]c12` [6-mercaptopurine] was tested. Which “classification of cell line as Low(1), Medium(2), High(3) sensitivity to compound” value (from here on “classification of cell line”) (Breast BT-549 CL5013) did it give?
A: Its value is 1.

Q: What about the “classification of cell line” value (Breast HS-578T CL5006) of the same molecule?
A: The value was 1.

Q: And the “classification of cell line” value (Breast MCF7(I) CL5001)?
A: The value was 2.

Q: What about the “classification of cell line” value (Breast MCF7/ADRr CL5002) of the same molecule?
A: The value was 2.

Q: What about the “classification of cell line” value (Breast MDA-MB-231 CL5005) of the same molecule?
A: The value was 1.

Q: And the “classification of cell line” value (Breast MDA-MB-435 CL5011)?
A: The value was 2.

Q: What about the “classification of cell line” value (Breast MDA-N CL5012) of the same molecule?
A: Its value is 2.

Q: What about the “classification of cell line” value (Breast T-47D CL5014) of the same molecule?
A: The value was 2.

Q: And the “classification of cell line” value (CNS SF-268 CL12014)?
A: The value was 2.

Q: And the “classification of cell line” value (CNS SF-295 CL12015)?
A: The value was 2.

Q: What about the “classification of cell line” value (CNS SF-539 CL12016) of the same molecule?
A: The value was 2.

Q: And the “classification of cell line” value (CNS SNB-19 CL12002)?
A: Its value is 1.

Q: And the “classification of cell line” value (CNS SNB-75(I) CL12005)?
A: The value was 2.

Q: What about the “classification of cell line” value (CNS U251(I) CL12009) of the same molecule?
A: The value was 2.

Q: What about the “classification of cell line” value (Colon COLO-250 CL4010) of the same molecule?
A: Its value is 2.

Q: And the “classification of cell line” value (Colon HCC-2998 CL4002)?
A: The value was 2.

Q: What about the “classification of cell line” value (Colon HCT-15 CL4015) of the same molecule?
A: The value was 2.

Q: What about the “classification of cell line” value (Colon HCT-116 CL4003) of the same molecule?
A: Its value is 2.

Q: And the “classification of cell line” value (Colon HT29(I) CL4001)?
A: Its value is 2.

Q: And the “classification of cell line” value (Colon KM12 CL4017)?
A: Its value is 2.

Q: What about the “classification of cell line” value (Colon SW-620 CL4009) of the same molecule?
A: The value was 2.

Q: And the “classification of cell line” value (Leukemia CCRF-CEM(I) CL7003)?
A: Its value is 3.

Q: And the “classification of cell line” value (Leukemia HL-60(I) CL7008)?
A: The value was 2.

Q: What about the “classification of cell line” value (Leukemia K562(I) CL7005) of the same molecule?
A: Its value is 3.

Q: What about the “classification of cell line” value (Leukemia MOLT-4 CL7006) of the same molecule?
A: The value was 2.

Q: What about the “classification of cell line” value (Leukemia RPMI-8226(I) CL7010) of the same molecule?
A: The value was 2.

Q: And the “classification of cell line” value (Leukemia SR CL7019)?
A: The value was 3.

Q: And the “classification of cell line” value (Melanoma LOX IMVI CL10001)?
A: The value was 3.

Q: What about the “classification of cell line” value (Melanoma M14 CL10014) of the same molecule?
A: The value was 3.

Q: What about the “classification of cell line” value (Melanoma MALME-3M CL10002) of the same molecule?
A: The value was 2.

Q: What about the “classification of cell line” value (Melanoma SK-MEL-2 CL10005) of the same molecule?
A: The value was 2.

Q: What about the “classification of cell line” value (Melanoma SK-MEL-5 CL10007) of the same molecule?
A: Its value is 2.

Q: And the “classification of cell line” value (Melanoma SK-MEL-28 CL10008)?
A: Its value is 1.

Q: What about the “classification of cell line” value (Melanoma UACC-62 CL10020) of the same molecule?
A: Its value is 2.

Q: And the “classification of cell line” value (Melanoma UACC-257 CL10021)?
A: Its value is 1.

Q: What about the “classification of cell line” value (NSCLC A549/ATCC CL1004) of the same molecule?
A: Its value is 1.

Q: What about the “classification of cell line” value (NSCLC EKVX CL1008) of the same molecule?
A: The value was 1.

Q: And the “classification of cell line” value (NSCLC HOP-62 CL1026)?
A: Its value is 2.

Q: What about the “classification of cell line” value (NSCLC HOP-92 CL1029) of the same molecule?
A: Its value is 2.

Q: And the “sensitivity classification Low(1)/Medium(2)/High(3)” value (NSCLC NCI-H23(I) CL1001)?
A: Its value is 2.

Q: What about the “classification of cell line” value (NSCLC NCI-H226 CL1013) of the same molecule?
A: Its value is 1.

Q: What about the “sensitivity classification Low(1)/Medium(2)/High(3)” value (NSCLC NCI-H332M CL1017) of the same molecule?
A: Its value is 2.

Q: And the “sensitivity classification Low(1)/Medium(2)/High(3)” value (NSCLC NCI-H460 CL1021)?
A: Its value is 2.

Q: And the “sensitivity classification Low(1)/Medium(2)/High(3)” value (NSCLC NCI-H522 CL1003)?
A: Its value is 2.

Q: And the “sensitivity classification Low(1)/Medium(2)/High(3)” value (Ovarian IGROV1 CL6010)?
A: Its value is 2.

Q: And the “sensitivity classification Low(1)/Medium(2)/High(3)” value (Ovarian OVCAR-3 CL6001)?
A: The value was 3.

Q: What about the “sensitivity classification Low(1)/Medium(2)/High(3)” value (Ovarian OVCAR-4 CL6002) of the same molecule?
A: The value was 2.

Q: And the “sensitivity classification Low(1)/Medium(2)/High(3)” value (Ovarian OVCAR-5 CL6003)?
A: Its value is 2.

Q: And the “sensitivity classification Low(1)/Medium(2)/High(3)” value (Ovarian OVCAR-8 CL6005)?
A: The value was 2.

Q: And the “sensitivity classification Low(1)/Medium(2)/High(3)” value (Ovarian SK-OV-3 CL6011)?
A: Its value is 3.

Q: What about the “sensitivity classification Low(1)/Medium(2)/High(3)” value (Prostate DU-145 CL11003) of the same molecule?
A: The value was 2.

Q: And the “sensitivity classification Low(1)/Medium(2)/High(3)” value (Prostate PC-3(I) CL11001)?
A: Its value is 2.

Q: And the “sensitivity classification Low(1)/Medium(2)/High(3)” value (Renal 786-0 CL9018)?
A: Its value is 2.

Q: What about the “sensitivity classification Low(1)/Medium(2)/High(3)” value (Renal A498 CL9013) of the same molecule?
A: Its value is 1.

Q: And the “sensitivity classification Low(1)/Medium(2)/High(3)” value (Renal ACHN CL9023)?
A: The value was 2.

Q: What about the “sensitivity classification Low(1)/Medium(2)/High(3)” value (Renal CAKI-1 CL9015) of the same molecule?
A: The value was 2.

Q: And the “sensitivity classification Low(1)/Medium(2)/High(3)” value (Renal RXF-393 CL9016)?
A: The value was 1.

Q: What about the “sensitivity classification Low(1)/Medium(2)/High(3)” value (Renal SN12C CL9008) of the same molecule?
A: Its value is 1.

Q: And the “sensitivity classification Low(1)/Medium(2)/High(3)” value (Renal TK10 CL9024)?
A: Its value is 2.

Q: And the “sensitivity classification Low(1)/Medium(2)/High(3)” value (Renal UO-31 CL9004)?
A: Its value is 2.

Q: `Nc1ccn([C@@H]2O[C@H](CO)[C@@H](O)[C@@H]2O)c(=O)n1` [AraC] was tested. Which “classification of cell line” value did it give?
A: The value was 3 and 2 and 1.

Q: What about the “sensitivity classification Low(1)/Medium(2)/High(3)” value of the same molecule?
A: Its value is 3 and 2 and 1.
